For 19 molecules, inhibition and IC50 results are on record in ChEMBL document CHEMBL5257075, “Design, synthesis and biological evaluation of quinazoline SOS1 inhibitors” (Bioorg Med Chem Lett, 2023).

Experiment [1] deals with T1, Son of sevenless homolog 1 (Homo sapiens) (UniProt Q07889).
T1 sequence (whole entry): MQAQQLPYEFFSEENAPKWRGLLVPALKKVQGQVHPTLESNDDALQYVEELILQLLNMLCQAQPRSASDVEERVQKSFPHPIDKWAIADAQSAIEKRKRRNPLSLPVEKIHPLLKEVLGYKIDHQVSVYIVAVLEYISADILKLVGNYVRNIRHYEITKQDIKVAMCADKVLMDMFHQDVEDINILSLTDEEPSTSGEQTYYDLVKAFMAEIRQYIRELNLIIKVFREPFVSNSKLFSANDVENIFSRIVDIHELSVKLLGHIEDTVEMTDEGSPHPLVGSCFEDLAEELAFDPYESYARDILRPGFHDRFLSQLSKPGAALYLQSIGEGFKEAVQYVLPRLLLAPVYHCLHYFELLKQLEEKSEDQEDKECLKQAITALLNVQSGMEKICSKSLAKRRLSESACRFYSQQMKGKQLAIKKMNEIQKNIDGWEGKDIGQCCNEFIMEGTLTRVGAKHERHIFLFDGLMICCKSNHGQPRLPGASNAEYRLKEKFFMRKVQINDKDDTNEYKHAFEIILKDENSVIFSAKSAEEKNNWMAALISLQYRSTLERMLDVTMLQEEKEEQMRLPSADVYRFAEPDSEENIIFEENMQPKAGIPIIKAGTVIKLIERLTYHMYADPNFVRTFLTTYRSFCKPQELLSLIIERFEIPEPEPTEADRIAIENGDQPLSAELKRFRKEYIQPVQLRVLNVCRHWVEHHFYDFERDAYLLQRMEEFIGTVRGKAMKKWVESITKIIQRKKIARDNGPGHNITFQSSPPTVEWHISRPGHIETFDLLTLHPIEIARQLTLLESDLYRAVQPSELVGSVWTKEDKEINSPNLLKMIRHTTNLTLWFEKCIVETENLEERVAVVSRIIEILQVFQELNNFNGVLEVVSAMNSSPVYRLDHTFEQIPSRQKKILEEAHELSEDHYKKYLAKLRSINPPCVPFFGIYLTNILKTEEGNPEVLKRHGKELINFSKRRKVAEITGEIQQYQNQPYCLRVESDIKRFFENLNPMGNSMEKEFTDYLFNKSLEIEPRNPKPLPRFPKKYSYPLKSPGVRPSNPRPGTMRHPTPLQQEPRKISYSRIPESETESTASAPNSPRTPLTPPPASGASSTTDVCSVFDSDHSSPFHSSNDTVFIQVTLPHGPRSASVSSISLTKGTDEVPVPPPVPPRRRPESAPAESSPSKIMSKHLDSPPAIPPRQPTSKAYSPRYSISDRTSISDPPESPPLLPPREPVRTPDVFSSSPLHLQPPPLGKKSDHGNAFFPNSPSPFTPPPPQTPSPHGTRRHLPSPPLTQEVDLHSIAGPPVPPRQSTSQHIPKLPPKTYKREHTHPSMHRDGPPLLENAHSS
Put plainly: Inhibition of SOS1 (unknown origin) at 500 nM.

For experiment [2], the target named is T2, Son of sevenless homolog 1 (Homo sapiens, UniProt Q07889).
T2 sequence (Q07889 whole entry): T1 sequence (whole entry)
Put plainly: Inhibition of SOS1 (unknown origin).

Experiment [3] relates to K562. The experiment in a line: Antiproliferative activity against human K562 cells assessed as inhibition of cell proliferation. Type of experiment: functional, cell-based.
For experiment [4], the target named is Epidermal growth factor receptor (Homo sapiens) (UniProt P00533). The experiment in a line: Inhibition of wild type EGFR (unknown origin) at 5000 nM.
Experiment [5] concerns NCI-H838. Put plainly: Antiproliferative activity against human NCI-H838 cells assessed as inhibition of cell proliferation. The class given is functional, cell-based.

pIC50: −log10 of the molar value.

Sequence of Epidermal growth factor receptor (Homo sapiens) (P00533 whole entry): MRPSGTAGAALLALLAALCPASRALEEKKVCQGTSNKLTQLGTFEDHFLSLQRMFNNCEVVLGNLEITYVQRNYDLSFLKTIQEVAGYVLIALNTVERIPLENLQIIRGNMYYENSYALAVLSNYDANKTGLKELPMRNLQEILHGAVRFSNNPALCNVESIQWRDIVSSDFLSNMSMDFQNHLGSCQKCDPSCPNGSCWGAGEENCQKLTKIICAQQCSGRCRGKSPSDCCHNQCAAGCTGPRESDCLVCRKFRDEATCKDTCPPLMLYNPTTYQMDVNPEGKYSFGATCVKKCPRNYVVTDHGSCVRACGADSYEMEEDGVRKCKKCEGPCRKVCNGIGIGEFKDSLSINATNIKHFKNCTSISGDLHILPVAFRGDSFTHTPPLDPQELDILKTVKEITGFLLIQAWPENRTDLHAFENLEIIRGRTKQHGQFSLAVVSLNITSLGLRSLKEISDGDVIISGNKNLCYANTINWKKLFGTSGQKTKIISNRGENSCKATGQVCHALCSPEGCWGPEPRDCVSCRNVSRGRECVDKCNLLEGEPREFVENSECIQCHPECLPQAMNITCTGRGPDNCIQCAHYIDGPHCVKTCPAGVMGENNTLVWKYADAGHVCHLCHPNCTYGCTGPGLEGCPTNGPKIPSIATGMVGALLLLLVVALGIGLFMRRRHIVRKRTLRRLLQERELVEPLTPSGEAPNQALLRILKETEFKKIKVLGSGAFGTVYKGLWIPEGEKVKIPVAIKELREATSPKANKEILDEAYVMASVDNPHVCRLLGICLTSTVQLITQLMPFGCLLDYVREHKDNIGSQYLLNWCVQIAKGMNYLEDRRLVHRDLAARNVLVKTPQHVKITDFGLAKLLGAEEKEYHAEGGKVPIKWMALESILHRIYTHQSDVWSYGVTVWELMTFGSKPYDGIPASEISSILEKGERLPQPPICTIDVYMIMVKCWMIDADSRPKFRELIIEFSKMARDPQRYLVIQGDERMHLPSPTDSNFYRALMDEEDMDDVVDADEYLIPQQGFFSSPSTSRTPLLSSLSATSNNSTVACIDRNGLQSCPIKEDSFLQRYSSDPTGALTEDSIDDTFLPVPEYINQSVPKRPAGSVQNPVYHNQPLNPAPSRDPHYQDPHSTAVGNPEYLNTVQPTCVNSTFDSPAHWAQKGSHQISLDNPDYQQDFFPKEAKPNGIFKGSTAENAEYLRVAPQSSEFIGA

In turn, `Cc1nc(NC(C)c2ccc(-c3ccccc3CNCCO)s2)c2cc3c(cc2n1)OCCO3` (racemic) registered an inhibition in experiment [1] of 89.1%.

Take `COc1cc2ncnc(NC(C)c3ccc(-c4ccccc4CNCCO)s3)c2cc1OC` (racemic): the inhibition is 99.1% in experiment [1] and 20.7% in experiment [4]. Moreover, the pIC50 in experiment [2] was 8.07; in experiment [3], 6.05; in experiment [5], less than 4.60.

In experiment [1], `COc1cc2ncnc(NC(C)c3cc(-c4ccccc4C(N)=O)cs3)c2cc1OC` (racemic) registered an inhibition of 33.7%.

`CNCc1ccccc1-c1ccc(C(C)Nc2ncnc3cc4c(cc23)OCCO4)s1` (racemic) registered an inhibition in experiment [1] of 75.9%.

In experiment [1], `CNCc1ccccc1-c1ccc(C(C)Nc2nc(C)nc3cc4c(cc23)OCCO4)s1` (racemic) yielded an inhibition of 77.3%.

With `CNCc1ccccc1-c1csc([C@@H](C)Nc2nc(C)nc3cc(OC)c(OC)cc23)c1` [BAY-293], the pIC50 in experiment [3] was 6.64.

The molecule `COc1cc2ncnc(NC(C)c3cc(-c4ccccc4N)cs3)c2cc1OC` (racemic) yielded an inhibition in experiment [1] of 61%.

For the molecule `CNCc1ccccc1-c1csc(C(C)Nc2ncnc3cc(OC)c(OC)cc23)c1` (racemic), the inhibition in experiment [1] was determined as 99%; in experiment [4], 38.1%. Further, the pIC50 was 7.70 in experiment [2], 5.66 in experiment [3] and less than 4.60 in experiment [5].

For the molecule `COc1cc2ncnc(NC(C)c3cc(-c4ccccc4O)cs3)c2cc1OC` (racemic), in experiment [1], the inhibition was 65.7%.

`CC(Nc1ncnc2cc3c(cc12)OCCO3)c1cc(-c2ccccc2CNCCO)cs1` (racemic) returned an inhibition in experiment [1] of 80.2%.

In the case of `CC(Nc1ncnc2cc3c(cc12)OCCO3)c1ccc(-c2ccccc2CNCCO)s1` (racemic), the inhibition in experiment [1] is 79.4%.

In experiment [1], `COc1cc2ncnc(NC(C)c3ccc(-c4ccccc4N)s3)c2cc1OC` (racemic) displayed an inhibition of 75.2%.

For the molecule `COc1cc2ncnc(NC(C)c3ccc(-c4ccccc4O)s3)c2cc1OC` (racemic), the inhibition in experiment [1] is 43.9%.

`Cc1nc(NC(C)c2cc(-c3ccccc3CNCCO)cs2)c2cc3c(cc2n1)OCCO3` (racemic): the inhibition in experiment [1] turned out to be 85.1%. The pIC50 in experiment [2] was 7.35; in experiment [3], 5.61.

Turning to `CNCc1ccccc1-c1ccc(C(C)Nc2ncnc3cc(OC)c(OC)cc23)s1` (racemic), the inhibition in experiment [1] turned out to be 98.7%.

`CNCc1ccccc1-c1csc(C(C)Nc2nc(C)nc3cc4c(cc23)OCCO4)c1` (racemic) had an inhibition in experiment [1] of 81.4%. Moreover, the pIC50 in experiment [2] is 7.57; in experiment [3], 5.46.

For the molecule `COc1cc2ncnc(NC(C)c3ccc(-c4ccccc4C(N)=O)s3)c2cc1OC` (racemic), in experiment [1], the inhibition turned out to be 38.7%.

For the molecule `COc1cc2ncnc(NC(C)c3cc(-c4ccccc4CNCCO)cs3)c2cc1OC` (racemic), the inhibition in experiment [1] was 97.5%. Besides, the figures for the pIC50 in experiment [2] and in experiment [3] were 7.74 and 5.39, respectively.

Consider `CNCc1ccccc1-c1csc(C(C)Nc2ncnc3cc4c(cc23)OCCO4)c1` (racemic), for which the results for the inhibition in experiment [1] and in experiment [4] were 78.5% and 22.2%, respectively. In addition, the pIC50 is 7.01 in experiment [2], 5.54 in experiment [3] and less than 4.60 in experiment [5].
